In ChEMBL document CHEMBL1136842, “5-Nitrofuran-2-yl derivatives: synthesis and inhibitory activities against growing and dormant mycobacterium species” (Bioorg Med Chem Lett, 2009):
pIC50: −log10 of the molar value. Values after ≈ are worked out from the molar mass of the structure shown.

Assays:
[1] = tested on: Mycolicibacterium smegmatis; assay: Antimycobacterial activity against Mycobacterium smegmatis ATCC 14468 by agar dilution method; assay type: functional
Vero = assay: Cytotoxicity against african green monkey Vero cells after 72 hrs by MTT assay; assay type: cell-based; conditions: Chlorocebus sabaeus
Mycolicibacterium vaccae = assay: Antimycobacterial activity against Mycobacterium vaccae MTCC 997 by agar dilution method; assay type: functional
Mycolicibacterium phlei = assay: Antimycobacterial activity against Mycobacterium phlei MTCC 1724 by agar dilution method; assay type: functional
[2] = tested on: Mycobacterium tuberculosis; assay: Antimycobacterial activity against Mycobacterium tuberculosis H37Rv by agar dilution method; assay type: functional
[3] = tested on: Mycolicibacterium fortuitum; assay: Antimycobacterial activity against Mycobacterium fortuitum MTCC 951 by agar dilution method; assay type: functional
Mycobacterium kansasii = assay: Antimycobacterial activity against Mycobacterium kansasii MTCC 3058 by agar dilution method; assay type: functional
[4] = tested on: Mycobacterium tuberculosis; assay: Antimycobacterial activity against 6-week-starved culture of Mycobacterium tuberculosis H37Rv by agar dilution method; assay type: functional
[5] = tested on: Mycobacterium tuberculosis; assay: Antimycobacterial activity against log-phase culture of Mycobacterium tuberculosis H37Rv by agar dilution method; assay type: functional
[6] = tested on: Mycolicibacterium smegmatis; assay: Antimycobacterial activity against 6-week-starved culture of Mycobacterium smegmatis ATCC 14468 by agar dilution method; assay type: functional
[7] = tested on: Mycolicibacterium smegmatis; assay: Antimycobacterial activity against log-phase culture of Mycobacterium smegmatis ATCC 14468 by agar dilution method; assay type: functional
[8] = Ratio of IC50 for african green monkey Vero cells to MIC for Mycobacterium tuberculosis H37Rv; assay type: functional

Row | Compound | MIC [1] [µM] | pIC50 (Vero) | MIC (Mycolicibacterium vaccae) [µM] | MIC (Mycolicibacterium phlei) [µM] | MIC [2] [µM] | MIC [3] [µM] | MIC (Mycobacterium kansasii) [µM] | MIC [4] [µM] | MIC [5] [µM] | MIC [6] [µM] | MIC [7] [µM] | Ratio [8]
1 | Cc1ccnc(NC(=S)N/N=C/c2ccc([N+](=O)[O-])o2)c1 | 20.5 (≈ 6.26 µg/mL) | > 3.69 | 2.6 (≈ 0.794 µg/mL) | 5.1 (≈ 1.56 µg/mL) | 2.6 (≈ 0.794 µg/mL) | 5.1 (≈ 1.56 µg/mL) | 5.1 (≈ 1.56 µg/mL) | – | – | – | – | –
2 | O=[N+]([O-])c1ccc(/C=N/NC(=S)Nc2ccccc2Br)o1 | 33.8 (≈ 12.5 µg/mL) | < 3.77 | 16.9 (≈ 6.24 µg/mL) | 16.9 (≈ 6.24 µg/mL) | 0.54 (≈ 0.199 µg/mL) | 33.8 (≈ 12.5 µg/mL) | 8.4 (≈ 3.1 µg/mL) | 33.8 (≈ 12.5 µg/mL) | 0.54 (≈ 0.199 µg/mL) | – | – | –
3 | NS(=O)(=O)c1ccc(NC(=S)N/N=C/c2ccc([N+](=O)[O-])o2)cc1 | 8.4 (≈ 3.1 µg/mL) | > 3.77 | 2.1 (≈ 0.776 µg/mL) | 16.8 (≈ 6.21 µg/mL) | 2.1 (≈ 0.776 µg/mL) | 33.8 (≈ 12.5 µg/mL) | 33.8 (≈ 12.5 µg/mL) | – | – | 75.6 (≈ 27.9 µg/mL) | 8.4 (≈ 3.1 µg/mL) | –
4 | Cc1ccc(NC(=S)N/N=C/c2ccc([N+](=O)[O-])o2)cc1 | 41 (≈ 12.5 µg/mL) | < 3.69 | 41 (≈ 12.5 µg/mL) | 2.5 (≈ 0.761 µg/mL) | 5.1 (≈ 1.55 µg/mL) | 41 (≈ 12.5 µg/mL) | 20.5 (≈ 6.24 µg/mL) | – | – | – | – | –
5 | NNC(=O)c1ccncc1 [ISONIAZID] | 45.6 (≈ 6.25 µg/mL) | < 3.34 | 182 (≈ 25 µg/mL) | 91.2 (≈ 12.5 µg/mL) | 0.66 (≈ 0.0905 µg/mL) | 22.8 (≈ 3.13 µg/mL) | 182 (≈ 25 µg/mL) | 729 (≈ 100 µg/mL) | 0.66 (≈ 0.0905 µg/mL) | > 729 | 45.6 (≈ 6.25 µg/mL) | –
6 | O=C(O)c1cn(C2CC2)c2cc(N3CCNCC3)c(F)cc2c1=O [CIPROFLOXACIN] | 2.35 (≈ 0.779 µg/mL) | < 3.72 | – | – | – | – | 9.45 (≈ 3.13 µg/mL) | – | – | – | – | –
7 | O=[N+]([O-])c1ccc(/C=N/NC(=S)Nc2ccccn2)o1 | 48.4 (≈ 14.1 µg/mL) | 3.67 | 24.2 (≈ 7.05 µg/mL) | 6 (≈ 1.75 µg/mL) | 12.1 (≈ 3.52 µg/mL) | 48.4 (≈ 14.1 µg/mL) | 12.1 (≈ 3.52 µg/mL) | – | – | – | – | –
8 | O=[N+]([O-])c1ccc(/C=N/NC(=S)Nc2ccccc2)o1 | 172 (≈ 50 µg/mL) | < 3.67 | 43 (≈ 12.5 µg/mL) | 10.7 (≈ 3.11 µg/mL) | 10.7 (≈ 3.11 µg/mL) | 43 (≈ 12.5 µg/mL) | 5.3 (≈ 1.54 µg/mL) | – | – | – | – | –
9 | Cc1cccnc1NC(=S)N/N=C/c1ccc([N+](=O)[O-])o1 | 20.5 (≈ 6.26 µg/mL) | > 3.69 | 20.5 (≈ 6.26 µg/mL) | 10.2 (≈ 3.11 µg/mL) | 5.1 (≈ 1.56 µg/mL) | 10.2 (≈ 3.11 µg/mL) | 5.1 (≈ 1.56 µg/mL) | – | – | – | – | –
10 | Cc1cc(C)nc(NC(=S)N/N=C/c2ccc([N+](=O)[O-])o2)c1 | 4.8 (≈ 1.53 µg/mL) | > 3.71 | 39.1 (≈ 12.5 µg/mL) | 39.1 (≈ 12.5 µg/mL) | 2.4 (≈ 0.766 µg/mL) | 39.1 (≈ 12.5 µg/mL) | 39.1 (≈ 12.5 µg/mL) | – | – | 91.2 (≈ 29.1 µg/mL) | 4.8 (≈ 1.53 µg/mL) | –
11 | Cc1cccc(C)c1NC(=S)N/N=C/c1ccc([N+](=O)[O-])o1 | 39.2 (≈ 12.5 µg/mL) | < 3.71 | 39.2 (≈ 12.5 µg/mL) | 9.8 (≈ 3.12 µg/mL) | 4.9 (≈ 1.56 µg/mL) | 39.2 (≈ 12.5 µg/mL) | 39.2 (≈ 12.5 µg/mL) | – | – | – | – | –
12 | CO[C@H]1/C=C/O[C@@]2(C)Oc3c(C)c(O)c4c(O)c(c(/C=N/N5CCN(C)CC5)c(O)c4c3C2=O)NC(=O)/C(C)=C\C=C\[C@H](C)[C@H](O)[C@@H](C)[C@@H](O)[C@@H](C)[C@H](OC(C)=O)[C@@H]1C [RIFAMPIN] | 1.89 (≈ 1.56 µg/mL) | < 4.12 | 3.8 (≈ 3.13 µg/mL) | 30.4 (≈ 25 µg/mL) | 0.23 (≈ 0.189 µg/mL) | 1.89 (≈ 1.56 µg/mL) | 7.59 (≈ 6.25 µg/mL) | 15.2 (≈ 12.5 µg/mL) | 0.23 (≈ 0.189 µg/mL) | 22.6 (≈ 18.6 µg/mL) | 1.89 (≈ 1.56 µg/mL) | –
13 | COc1ccc(NC(=S)N/N=C/c2ccc([N+](=O)[O-])o2)cc1 | 39 (≈ 12.5 µg/mL) | < 3.71 | 78 (≈ 25 µg/mL) | 4.85 (≈ 1.55 µg/mL) | 9.7 (≈ 3.11 µg/mL) | 39 (≈ 12.5 µg/mL) | 39 (≈ 12.5 µg/mL) | – | – | – | – | –
14 | O=[N+]([O-])c1ccc(/C=N/NC(=S)Nc2ccc(Cl)cn2)o1 | 2.4 (≈ 0.782 µg/mL) | 3.72 | 4.8 (≈ 1.56 µg/mL) | 38.3 (≈ 12.5 µg/mL) | 1.2 (≈ 0.391 µg/mL) | 38.3 (≈ 12.5 µg/mL) | 4.8 (≈ 1.56 µg/mL) | 38.3 (≈ 12.5 µg/mL) | 1.2 (≈ 0.391 µg/mL) | 43.2 (≈ 14.1 µg/mL) | 2.4 (≈ 0.782 µg/mL) | –
15 | O=[N+]([O-])c1ccc(/C=N/NC(=S)Nc2ccc(Cl)cc2)o1 | 19.1 (≈ 6.2 µg/mL) | < 3.72 | 9.6 (≈ 3.12 µg/mL) | 9.6 (≈ 3.12 µg/mL) | 1.23 (≈ 0.399 µg/mL) | 38.4 (≈ 12.5 µg/mL) | 38.4 (≈ 12.5 µg/mL) | – | – | 134 (≈ 43.4 µg/mL) | 19.1 (≈ 6.2 µg/mL) | –
16 | Cc1ccc(NC(=S)N/N=C/c2ccc([N+](=O)[O-])o2)c(C)c1 | 314 (≈ 100 µg/mL) | < 3.71 | 39.2 (≈ 12.5 µg/mL) | 4.9 (≈ 1.56 µg/mL) | 2.45 (≈ 0.78 µg/mL) | 39.2 (≈ 12.5 µg/mL) | 9.8 (≈ 3.12 µg/mL) | – | – | – | – | –
17 | Cc1ccc(C)c(NC(=S)N/N=C/c2ccc([N+](=O)[O-])o2)c1 | 157 (≈ 50 µg/mL) | < 3.71 | 2.4 (≈ 0.764 µg/mL) | 4.8 (≈ 1.53 µg/mL) | 1.2 (≈ 0.382 µg/mL) | 78.5 (≈ 25 µg/mL) | 78.5 (≈ 25 µg/mL) | 154 (≈ 49 µg/mL) | 1.1 (≈ 0.35 µg/mL) | – | – | –
18 | O=[N+]([O-])c1ccc(/C=N/NC(=S)Nc2ncc(Br)cc2Br)o1 | 6.9 (≈ 3.1 µg/mL) | 3.86 | 3.4 (≈ 1.53 µg/mL) | 6.9 (≈ 3.1 µg/mL) | 0.22 (≈ 0.0988 µg/mL) | 3.4 (≈ 1.53 µg/mL) | 1.7 (≈ 0.763 µg/mL) | 13.9 (≈ 6.24 µg/mL) | 0.22 (≈ 0.0988 µg/mL) | 124 (≈ 55.8 µg/mL) | 6.9 (≈ 3.1 µg/mL) | 632.2
19 | CCc1cccc(CC)c1NC(=S)N/N=C/c1ccc([N+](=O)[O-])o1 | 36 (≈ 12.5 µg/mL) | < 3.74 | 72.1 (≈ 25 µg/mL) | 36 (≈ 12.5 µg/mL) | 1.1 (≈ 0.381 µg/mL) | 72.1 (≈ 25 µg/mL) | 36 (≈ 12.5 µg/mL) | 36 (≈ 12.5 µg/mL) | 1.2 (≈ 0.416 µg/mL) | – | – | –
20 | COc1ccc(NC(=S)N/N=C/c2ccc([N+](=O)[O-])o2)c(OC)c1 | 35.6 (≈ 12.5 µg/mL) | < 3.75 | 71.1 (≈ 24.9 µg/mL) | 4.4 (≈ 1.54 µg/mL) | 4.4 (≈ 1.54 µg/mL) | 35.6 (≈ 12.5 µg/mL) | 35.6 (≈ 12.5 µg/mL) | – | – | – | – | –
